23 molecules from patent US9452980B2, “Substituted benzamides” (Hoffmann-La Roche Inc., priority 2009, dated 2016) can be followed below.

Each structure is given as a SMILES string. Structures can show the parent of a compound that is named as a salt. Where two headings read alike, the source gives them in different places.

One assay has as its target mouse TAAR1 (Mus musculus (Mouse), UniProt Q923Y8). Nature of the assay: Radioligand binding assay on mouse TAAR1. As to conditions: read-out: Ki (μM) mouse. Here is the method: (§1) For the construction of expression plasmids the coding sequences of human, rat and mouse TAAR1 were amplified from genomic DNA essentially as described by Lindemann et al.. The Expand High Fidelity PCR System (Roche Diagnostics) was used with 1.5 mM Mg^2+ and purified PCR products were cloned into pCR2.1-TOPO cloning vector (Invitrogen) following the instructions of the manufacturer. PCR products were subcloned into the pIRESneo2 vector (BD Clontech, Palo Alto, Calif.), and expression vectors were sequence verified before introduction in cell lines.
(§2) HEK293 cells (ATCC #CRL-1573) were cultured essentially as described by Lindemann et al. (2005). For the generation of stably transfected cell lines HEK293 cells were transfected with the pIRESneo2 expression plasmids containing the TAAR coding sequences (described above) with Lipofectamine 2000 (Invitrogen) according to the instructions of the manufacturer, and 24 hrs post transfection the culture medium was supplemented with 1 mg/ml G418 (Sigma, Buchs, Switzerland). After a culture period of about 10 d clones were isolated, expanded and tested for responsiveness to trace amines (all compounds purchased from Sigma) with the cAMP Biotrak Enzyme immunoassay (EIA) System (Amersham) following the non-acetylation EIA procedure provided by the manufacturer.
Radioligand Binding Assay on Mouse TAAR1
(§3) Membrane Preparation and Radioligand Binding.
(§4) HEK-293 cells stably expressing mouse TAAR1 were maintained at 37° C. and 5% CO2 in DMEM high glucose medium, containing fetal calf serum (10%, heat inactivated for 30 min at 56° C.), penicillin/streptomycin (1%), and 375 μg/ml geneticin (Gibco). Cells were released from culture flasks using trypsin/EDTA, harvested, washed twice with ice-cold PBS (without Ca^2+ and Mg^2+), pelleted at 1,000 rpm for 5 min at 4° C., frozen and stored at −80° C. Frozen pellets were suspended in 20 ml HEPES-NaOH (20 mM, pH 7.4) containing 10 mM EDTA and homogenized with a Polytron (PT 6000, Kinematica) at 14,000 rpm for 20 s. The homogenate was centrifuged at 48,000×g for 30 min at 4° C. Subsequently, the supernatant was removed and discarded, and the pellet resuspended in 20 ml HEPES-NaOH (20 mM, pH 7.4) containing 0.1 mM EDTA using the Polytron (20 s at 14,000 rpm). This procedure was repeated and the final pellet resuspended in HEPES-NaOH containing 0.1 mM EDTA and homogenized using the Polytron. Typically, aliquots of 2 ml membrane portions were stored at −80° C. With each new membrane batch the dissociation constant (Kd) was determined via a saturation curve. […] Nonspecific binding was defined as the amount of ^3[H]—(S)-4-[(ethyl-phenyl-amino)-methyl]-4,5-dihydro-oxazol-2-ylamine bound in the presence of 10 μM unlabeled ligand. All compounds were tested at a broad range of concentrations (10 pM to 10 μM) in duplicates. […] The 96 deep well plates were incubated for 1 hr at 4° C. Incubations were terminated by rapid filtration through Unifilter-96 plates (Packard Instrument Company) and glass filters GF/C (Perkin Elmer) presoaked for 1 hr in polyethylenimine (0.3%) and washed 3 times with 1 ml of cold binding buffer. After addition of 45 μl of Microscint 40 (PerkinElmer) the Unifilter-96 plate was sealed and after 1 hr the ratioactivity counted using a TopCount Microplate Scintillation Counter (Packard Instrument Company).

The target of a further assay is rat TAAR1 (Rattus norvegicus (Rat), UniProt Q923Y9). In words: Radioligand binding assay on rat TAAR1. The note with it: read-out: Ki (μM) rat. Here is the method:
as §1, §2
Radioligand Binding Assay on Rat TAAR1
as §3
as §4, with “rat” for “mouse”

The mark [1] stands for this setting: mouse TAAR1, HEK-293 membranes, first value of cell mouse/rat.
The mark [2] stands for this setting: rat TAAR1, HEK-293 membranes, second value of cell mouse/rat.

mouse TAAR1, sequence (Q923Y8 whole entry): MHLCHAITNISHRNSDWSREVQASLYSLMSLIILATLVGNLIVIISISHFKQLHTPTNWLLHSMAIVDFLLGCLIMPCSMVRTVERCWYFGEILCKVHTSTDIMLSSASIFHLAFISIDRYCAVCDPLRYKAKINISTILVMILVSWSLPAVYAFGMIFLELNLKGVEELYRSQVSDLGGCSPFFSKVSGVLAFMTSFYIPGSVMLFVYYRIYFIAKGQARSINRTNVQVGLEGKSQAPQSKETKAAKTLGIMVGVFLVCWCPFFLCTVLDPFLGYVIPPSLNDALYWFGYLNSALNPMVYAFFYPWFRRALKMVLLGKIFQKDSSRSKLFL
rat TAAR1, sequence (Q923Y9 whole entry): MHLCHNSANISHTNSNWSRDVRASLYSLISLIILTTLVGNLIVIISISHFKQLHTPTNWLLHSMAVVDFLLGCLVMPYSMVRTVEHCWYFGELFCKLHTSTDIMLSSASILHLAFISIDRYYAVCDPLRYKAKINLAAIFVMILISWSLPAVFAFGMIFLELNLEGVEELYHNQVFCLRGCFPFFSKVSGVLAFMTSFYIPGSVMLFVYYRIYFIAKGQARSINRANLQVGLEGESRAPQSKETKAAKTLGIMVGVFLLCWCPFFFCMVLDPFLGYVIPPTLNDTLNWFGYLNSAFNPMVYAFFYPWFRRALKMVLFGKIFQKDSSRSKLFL

Take `O=C(Nc1ccc([C@H]2CNCCO2)cc1)c1ccc(OCC(F)(F)F)nc1` [Example 269, (S)—N-(4-(Morpholin-2-yl)phenyl)-6-(2,2,2-trifluoroethoxy)nicotinamide hydrochloride]: the Ki on mouse TAAR1 amounted to 0.0099 µM; at rat TAAR1, 0.003 µM.

`O=C(Nc1ccc(CCC2CCCN2)cc1)c1cccc(Cl)c1` (racemic) [Example 157, (RS)-3-Chloro-N-[4-(2-pyrrolidin-2-yl-ethyl)-phenyl]-benzamide]: the inhibition constant (Ki) amounted to 0.142 µM at mouse TAAR1 (setting [1]) and 0.0007 µM on rat TAAR1 (setting [2]).

Consider `O=C(Cc1ccc(Cl)cc1)Nc1ccc(C2CCNC2)cc1` (racemic) [Example 17, (RS)-2-(4-Chloro-phenyl)-N-(4-pyrrolidin-3-yl-phenyl)-acetamide hydrochloride], for which the results for the Ki at mouse TAAR1 (setting [1]) and on rat TAAR1 (setting [2]) were 0.0083 µM and 0.0363 µM, respectively.

Take `O=C(Cc1ccc(Cl)cc1)Nc1ccc(C2CCCNC2)cc1` (racemic) [Example 102, (RS)-2-(4-Chloro-phenyl)-N-(4-piperidin-3-yl-phenyl)-acetamide hydrochloride]: the results for the Ki on mouse TAAR1 (setting [1]) and at rat TAAR1 (setting [2]) were 0.0108 µM and 0.0894 µM, respectively.

Turning to `O=C(Nc1ccc([C@@H]2CCCNC2)cc1)c1cnc(Cl)cn1` [Example 238, 5-Chloro-pyrazine-2-carboxylic acid ((S)-4-piperidin-3-yl-phenyl)-amide hydrochloride], the inhibition constant Ki at mouse TAAR1 was 1.12 µM; on rat TAAR1 (setting [2]), 0.0056 µM.

In the case of `O=C(NCc1ccc([C@@H]2CNCCO2)cc1)c1ccc(C(F)(F)F)nc1` [Example 321, (R)—N-(4-(Morpholin-2-yl)benzyl)-6-(trifluoromethyl)nicotinamide hydrochloride], the Ki on mouse TAAR1 is 1.31 µM; on rat TAAR1, 0.026 µM.

Take `Cc1cccc(C(=O)Nc2ccc(C3CNCCO3)cc2)c1` (racemic) [Example 277, (RS)-3-Methyl-N-(4-(morpholin-2-yl)phenyl)benzamide hydrochloride]: the values for the Ki at mouse TAAR1 and at rat TAAR1 (setting [2]) were 0.0472 µM and 0.0036 µM, respectively.

In the case of `CCOc1ccc(C(=O)Nc2ccc(C3CCNC3)cc2)cc1` (racemic) [Example 52, (RS)-4-Ethoxy-N-(4-pyrrolidin-3-yl-phenyl)-benzamide hydrochloride], the Ki came out at 0.0017 µM at mouse TAAR1 (setting [1]) and 0.0109 µM on rat TAAR1 (setting [2]).

In the case of `CO[C@H]1CC[C@@H](C(=O)Nc2ccc(C3CNCCO3)cc2)CC1` (mixture of isomers) [Example 254, cis-(RS)-4-Methoxy-N-(4-(morpholin-2-yl)phenyl)cyclohexanecarboxamide hydrochloride], the Ki was 2.82 µM on mouse TAAR1 (setting [1]) and 0.726 µM on rat TAAR1 (setting [2]).

Take `O=C(Nc1ccc(C2CNCCO2)cc1)c1ccc(C(F)(F)F)nc1` (racemic) [Example 272, (RS)—N-(4-(Morpholin-2-yl)phenyl)-6-(trifluoromethyl)nicotinamide hydrochloride]: the figures for the Ki at mouse TAAR1 (setting [1]) and on rat TAAR1 were 0.0214 µM and 0.0169 µM, respectively.

With `O=C(Nc1ccc(CC2CCNC2)cc1)c1ccc(Cl)cc1` (racemic) [Example 149, (RS)-4-Chloro-N-(4-pyrrolidin-3-ylmethyl-phenyl)-benzamide hydrochloride], the Ki at mouse TAAR1 (setting [1]) was found to be 0.0011 µM; on rat TAAR1 (setting [2]), 0.001 µM.

As for `CC(C(=O)Nc1ccc(C2CCNC2)cc1)c1cccc(C#N)c1` (racemic) [Example 68, (RS)-2-(3-Cyano-phenyl)-N—((RS)-4-pyrrolidin-3-yl-phenyl)-propionamide], the figures for the Ki on mouse TAAR1 (setting [1]) and at rat TAAR1 (setting [2]) were 0.147 µM and 0.102 µM, respectively.

Regarding `O=C(Nc1ccccc1)Nc1ccc(C2CCNC2)cc1` (racemic) [Example 6, (RS)-1-Phenyl-3-(4-pyrrolidin-3-yl-phenyl)-urea hydrochloride], the Ki at mouse TAAR1 (setting [1]) was found to be 0.0032 µM; at rat TAAR1, 0.0295 µM.

As to `O=C(Nc1ccc(C2CCCNC2)cc1)c1ccc(Cl)cc1` (racemic) [Example 58, (RS)-4-Chloro-N-(4-piperidin-3-yl-phenyl)-benzamide hydrochloride], the Ki is 0.0007 µM on mouse TAAR1 (setting [1]) and 0.0022 µM on rat TAAR1 (setting [2]).

Consider `O=C(Nc1ccc(C2CNCCO2)cc1)c1ccc(O)cc1` (racemic) [Example 199, (RS)-4-Hydroxy-N-(4-(morpholin-2-yl)phenyl)benzamide hydrochloride], for which the Ki at mouse TAAR1 (setting [1]) turned out to be 1.16 µM; on rat TAAR1 (setting [2]), 0.238 µM.

On to `O=C(NCc1ccc([C@@H]2CNCCO2)cc1)c1ccc(OCC(F)(F)F)nc1` [Example 316, (R)—N-(4-(Morpholin-2-yl)benzyl)-6-(2,2,2-trifluoroethoxy)nicotinamide hydrochloride], for which the Ki is 0.273 µM on mouse TAAR1 (setting [1]) and 0.0121 µM on rat TAAR1 (setting [2]).

For the molecule `O=C(COc1ccc(Cl)cc1)Nc1ccc([C@@H]2CCCNC2)cc1` [Example 235, (S)-2-(4-Chlorophenoxy)-N-(4-(piperidin-3-yl)phenyl)acetamide hydrochloride], the inhibitory constant (Ki) was determined as 0.0334 µM on mouse TAAR1 and 0.0006 µM on rat TAAR1 (setting [2]).

Take `O=C(Nc1ccc(C2CCNC2)cc1)c1ccc(Cl)cn1` (racemic) [Example 42, (RS)-5-Chloro-pyridine-2-carboxylic acid (4-pyrrolidin-3-yl-phenyl)-amide hydrochloride]: the inhibitory constant (Ki) at mouse TAAR1 (setting [1]) was 0.0033 µM; at rat TAAR1 (setting [2]), 0.0354 µM.

`O=C(Nc1cccc(C2CNCCO2)c1)c1ccc(Cl)cc1` (racemic) [Example 72, (RS)-4-Chloro-N-(3-morpholin-2-yl-phenyl)-benzamide hydrochloride]: the values for the Ki on mouse TAAR1 (setting [1]) and at rat TAAR1 (setting [2]) were 0.507 µM and 0.107 µM, respectively.

Take `O=C(Nc1ccc([C@@H]2CCCNC2)cc1)c1ccc(Cl)cc1` [Example 112, 4-Chloro-N—((S)-4-piperidin-3-yl-phenyl)-benzamide]: the Ki is 0.211 µM on mouse TAAR1 (setting [1]) and 0.0018 µM on rat TAAR1 (setting [2]).

As to `CCOc1ccc(C(=O)Nc2ccc([C@@H]3CNCCO3)cc2)cc1` [Example 275, (R)-4-Ethoxy-N-(4-(morpholin-2-yl)phenyl)benzamide hydrochloride], the values for the Ki at mouse TAAR1 (setting [1]) and at rat TAAR1 were 0.0082 µM and 0.0036 µM, respectively.

For the molecule `Cc1cc(C(=O)Nc2ccc(C3CNCCO3)cc2)cc(Cl)n1` (racemic) [Example 273, (RS)-2-Chloro-6-methyl-N-(4-(morpholin-2-yl)phenyl)isonicotinamide hydrochloride], the values for the Ki at mouse TAAR1 and on rat TAAR1 (setting [2]) were 0.0343 µM and 0.008 µM, respectively.

On to `O=C(Nc1ccc([C@H]2CCCNC2)cc1)c1ccc(OCC(F)(F)F)nc1` [Example 223, (R)—N-(4-(Piperidin-3-yl)phenyl)-6-(2,2,2-trifluoroethoxy)nicotinamide hydrochloride], for which the Ki was 0.0016 µM on mouse TAAR1 (setting [1]) and 0.0018 µM at rat TAAR1.

A word on the Ki: it is the equilibrium dissociation constant of an inhibitor or competing ligand from its target.
